Reference: US9593149B2, “Amylin and calcitonin receptor agonist” (Novo Nordisk A/S, priority 2014, dated 2017)
Values after ≈ are worked out from the molar mass of the structure shown. Each block holds one compound with its values, some of them ahead of it. Numbered stars: 1 amine (or outer) side, 2 acyl side, 3 side chain; on linkers, the order of the positions; unused ones are H or OH. Peptide text beside a SMILES is read from it. * marks the point of attachment. C18 diacid = O=C(O)CCCCCCCCCCCCCCCCC(=O)*; γGlu = O=C(O)[C@H](CCC(=O)[*:2])N[*:1]; C14 diacid = O=C(O)CCCCCCCCCCCCC(=O)*; AEEA = NCCOCCOCC(=O)O

Experiments:
[1] = target: T1, human amylin 3(a) receptor (human calcitonin receptor + RAMP-3), BHK570 cells (Homo sapiens, UniProt O60896+P30988); assay: Assay (II)b functional CRE-luciferase assay without albumin, human amylin receptor; type: cell-based; details: Tested without HSA; read-out: hAmylin-R funct. EC50
T1 construct: host or cells: BHK570
T1 sequence (O60896 24-148, one chain of several): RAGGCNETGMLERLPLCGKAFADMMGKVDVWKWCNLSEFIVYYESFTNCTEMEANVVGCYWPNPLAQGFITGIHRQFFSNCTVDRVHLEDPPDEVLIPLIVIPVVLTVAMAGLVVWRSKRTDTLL
From the text: (§1) Assay(II)b—Human Calcitonin and Amylin Receptor Assay without Albumin
(§2) 1. Luciferase Assay Outline
(§3) Activation of calcitonin and amylin (co-expression of calcitonin receptor and receptor activity modifying proteins (RAMP)) receptors lead to increased intracellular concentrations of cAMP. Consequently, transcription is activated by promoters containing multiple copies of the cAMP response element (CRE). It is thus possible to measure amylin activity by the use of a CRE luciferase reporter gene introduced into BHK cells also expressing calcitonin or amylin receptors.
(§4) 2. Construction of Calcitonin (a)—and Amylin 3(a)—Receptor/CRE-Luc Cell Line.
(§5) A BHK570 cell line was stably transfected with the human calcitonin receptor and a CRE-responsive luciferase reporter gene (Hollex-1 cell line, obtained from ZymoGenetics described in U.S. Pat. No. 5,622,839). The cell line was further transfected with RAMP-3, using standard methods. This turns the calcitonin receptor into an amylin 3(a) receptor. Methotrexate, Neomycin, and Hygromycin are selection markers for luciferase, the calcitonin receptor, and RAMP-3, respectively. To prepare the batches of frozen cells used in the luciferase assay described in the section below, the cells were cultured in growth medium (DMEM with 10% FBS, 1% Pen/Strep and 1 mM Napyruvate). […] Cells at approximately 80-90% confluence were washed with PBS and loosened from the plates with Versene. After centrifugation (2 min, 1300 rpm, in a Centrion Scientific centriuge C2 series with a BRK 5510 rotor head), the cell pellet was dissolved in 10% DMSO, 30% FBS and 60% growth medium and frozen (−80° C.) until utilization.
(§6) The day before the experiment, BHK calcitonin (a) receptor- or amylin 3(a)-receptor/CRE-luc cells were thawed, washed twice, and seeded in 40 μl growth medium on white 384 well culture plates (4.000 cells/well). On the assay day, the cells were washed 3 times in assay media (Dulbecco media W/o phenol red, 500 ml (Gibco, 11880-028); 0.1% ovalbumin; 10 mM Hepes pH 7.4; 1× Glutamin; 1% Pen/Strep). Then, 30 μl/well of sample diluted in assay buffer was added. After 3 hours of incubation at 37° C. and 5% CO2, the reaction was terminated by adding 30 μl/well SteadyLite Plus™. The plates were shaken at 300 rpm for 5 min at RT. Then, the plates were sealed and incubated at room temperature for 30 minutes. Finally, luminescence was tested on a TopCounter (Packard) in SPC (single photon counting) mode.
(§7) Additional Comment Regarding Use of Data Retrieved Via this Method
(§8) For the same reasons, measurements made in Assay IIa should not be compared in Assay IIb.

[2] = Assay (IV) determination of solubility; type: physicochemical
Procedure: Assay (IV)—Determination of Solubility
The mimylin peptide was dissolved in water at ˜500 nmol/ml and mixed 1:1 with a series of buffers (100 mM glycylglycine pH 3.0, 100 mM glycylglycine pH 4.0, 100 mM glycylglycine pH 5.0, 100 mM bistrispropane pH 6.0, 100 mM bistrispropane pH 6.5, 100 mM bistrispropane pH 7.0, 100 mM bistrispropane pH 7.5, 100 mM bistrispropane pH 8.0).

[3] = target: T2, human calcitonin (a) receptor, BHK570 cells (Homo sapiens, UniProt P30988); assay: Assay (II)b functional CRE-luciferase assay without albumin, human calcitonin receptor; type: cell-based; details: Tested without HSA; read-out: hCTR funct. EC50
T2 construct: host or cells: BHK570
T2 sequence (P30988 25-474): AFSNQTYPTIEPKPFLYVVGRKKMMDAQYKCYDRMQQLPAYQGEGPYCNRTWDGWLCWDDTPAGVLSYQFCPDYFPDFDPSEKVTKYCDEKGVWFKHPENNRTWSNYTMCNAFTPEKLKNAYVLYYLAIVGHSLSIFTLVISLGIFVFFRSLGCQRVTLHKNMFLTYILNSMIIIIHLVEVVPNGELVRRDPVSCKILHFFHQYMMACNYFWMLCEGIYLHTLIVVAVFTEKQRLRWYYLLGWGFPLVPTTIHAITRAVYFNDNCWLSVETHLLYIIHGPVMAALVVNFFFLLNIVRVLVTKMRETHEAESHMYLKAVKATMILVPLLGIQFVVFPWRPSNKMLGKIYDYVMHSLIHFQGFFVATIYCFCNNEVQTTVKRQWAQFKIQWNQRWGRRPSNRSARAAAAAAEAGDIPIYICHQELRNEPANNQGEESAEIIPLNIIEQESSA
From the text: as §1, §2, §3, §4, §5, §6, §7, §8

[4] = target: T2, human calcitonin (a) receptor, BHK570 cells; assay: Assay (II)a functional CRE-luciferase assay with albumin, human calcitonin receptor; type: cell-based; details: Tested with HSA; read-out: hCTR funct. EC50
From the text: Assay(II)a—Human Calcitonin and Amylin Receptor Assay
as §2, §3, §4
A BHK570 cell line was stably transfected with the human calcitonin receptor and a CRE-responsive luciferase reporter gene. The cell line was further transfected with RAMP-3, using standard methods. This turns the calcitonin receptor into an amylin 3(a) receptor. Methotrexate, Neomycin, and Hygromycin are selection markers for luciferase, the calcitonin receptor, and RAMP-3, respectively.
To perform activity assays, BHK calcitonin (a) receptor- or amylin 3(a)-receptor/CRE-luc cells were seeded in white 96 well culture plates at a density of about 20.000 cells/well. […] After incubation overnight at 37° C. and 5% CO2, the growth medium was replaced by 50 μl/well assay medium (DMEM (without phenol red), Glutamax™, 10% FBS, and 10 mM Hepes, pH 7.4). Further, 50 μl/well of standard or sample in assay buffer were added.
After 3 hours incubation at 37° C. and 5% CO2, the assay medium with standard or sample were removed and replaced by 100 μl/well PBS. Further, 100 μl/well LucLite™ was added. The plates were sealed and incubated at room temperature for 30 minutes. Finally, luminescence was tested on a TopCounter (Packard) in SPC (single photon counting) mode.

[5] = target: T3, human amylin receptor (human calcitonin receptor + human RAMP3), BHK tk'ts 13 cells (Homo sapiens, UniProt O60896+P30988); assay: Assay (Va) binding to the human amylin receptor (whole cell); details: read-out: hAmylin-R binding IC50
T3 construct: expressed in transfected cells; host or cells: BHK tk'ts 13
T3 sequence (O60896 24-148, one chain of several): as the sequence (O60896 24-148, one chain of several) above
Procedure: The day before the assay the cells were Seeded into Poly-D-Lysin coated 384W Opaque White, BD BioCoat plates (10000 cells/well) and Incubated overnight at 37° C., 5% CO2, 95% humidity.

[6] = Assay (X) pK, T½ in rat; type: in vivo, Sprague Dawley rats
Procedure: Assay (X)—pK—Determination of T½ in Rat
Pharmacokinetic (PK) studies rats were conducted in order to determine the T½ of mimylin peptide after i.v. and s.c. administration.
T½ values of the mimylin derivates of the invention is determined by pharmacokinetic studies in Sprague Dawley male rats, from Taconic Europe and the principles of laboratory animal care are followed.
An acclimatisation period of approximately 7 days was allowed before the animals entered the study. At start of the acclimatisation period the rats were in the weight range of 250-400 g.
The studies were conducted in an animal room which was illuminated to give a cycle of approximately 12 hours light and 12 hours darkness. The animals were group housed and had food and water ad lib. The animals were weighed on the days of dosing.
In the present studies the test substances were administered subcutaneously or intravenously in approximately 20 nmol/kg dose. The animals received a single subcutaneous injection to the neck for subtaneous administration or directly into the tail vein for intravenous administration. Each test substance was given to typically three but in some cases two or four animals.
A full plasma concentration-time profile, employing 8-10 sampling points, was obtained from each animal. In example blood samples were collected according to the following schedule: After subcutaneous or intravenous administration:
At each sampling time, 0.08 to 0.10 ml of blood was drawn from each animal. The blood samples were taken in the sublingual vein via venous puncture and the use of a capillary tube.
The blood samples were stabilised with EDTA. Blood samples were kept on ice for max 20 min. before centrifugation. Plasma was separated using centrifugation (i.e. at 4° C., 10 min., 1500G) and was immediately transferred to Micronic tubes or PCR plates. Approximately 40 μl plasma was transferred and was stored at −20° C. until assayed. The plasma samples were assayed for the content of mimylin compound by LCMS
The plasma concentration-time profiles were analysed by a non-compartmental pharmacokinetic analysis (NCA) using Phoenix WinNonlin 6.3 (Pharsight Inc., Mountain View, Calif., USA). NCA was performed using the individual plasma concentration-time profiles from each animal. T½ is the terminal half-life=In2/λz and was determined from λz, the first order rate constant associated with the terminal (log-linear) portion of the curve, estimated by linear regression of time vs. log concentration.

EC50 [1]: 12 pM
solubility at 18 h ([2]; bistrispropane buffer, pH 6.5): ≥ 200 µM
solubility at 18 h ([2]; bistrispropane buffer, pH 7.5): ≥ 200 µM
solubility at 18 h ([2]; bistrispropane buffer, pH 6.0): ≥ 200 µM
solubility at 18 h ([2]; bistrispropane buffer, pH 7.0): ≥ 200 µM
solubility at 18 h ([2]; bistrispropane buffer, pH 8.0): ≥ 200 µM
solubility at 18 h ([2]; glycylglycine buffer, pH 3.0): 6 µM (≈ 21.8 µg/mL)
solubility at 18 h ([2]; glycylglycine buffer, pH 5.0): ≥ 200 µM
EC50 [3]: 6 pM
EC50 [4]: 28 pM
IC50 [5]: 1650 pM
Structure (SMILES): CC(C)C[C@H](NC(=O)[C@H](CCCNC(=N)N)NC(=O)CNC(=O)[C@@H](NC(=O)[C@@H](NC(=O)[C@H](C)NC(=O)[C@@H](NC(=O)[C@H](CO)NC(=O)[C@@H](NC(=O)[C@H](CCC(=O)O)NC(=O)[C@H](CO)NC(=O)[C@H](C)NC(=O)CC[C@H](NC(=O)CCCCCCCCCCCCCCCCC(=O)O)C(=O)O)C(C)C)[C@@H](C)O)C(C)C)C(C)C)C(=O)N[C@@H](CO)C(=O)N[C@@H](C)C(=O)N[C@@H](CCC(=O)O)C(=O)N[C@@H](CC(C)C)C(=O)N[C@@H](Cc1c[nH]cn1)C(=O)N[C@@H](CCC(=O)O)C(=O)N[C@H](C(=O)N[C@@H](C)C(=O)N[C@H](C(=O)N[C@@H](CC(C)C)C(=O)N1CCC[C@H]1C(=O)N[C@@H](CCCNC(=N)N)C(=O)N[C@H](C(=O)N[C@@H](CCC(=O)O)C(=O)N[C@H](C(=O)NCC(=O)N[C@@H](CO)C(=O)NCC(=O)N[C@@H](CO)C(=O)N1CCC[C@H]1C(N)=O)[C@@H](C)O)[C@@H](C)O)[C@@H](C)O)C(C)C [compound 102, [N-terminal(C18 diacid-gGlu), des1, 5V, 9V, 10V, 20V, 30S, 31G]mimylin] ({C18 diacid-γGlu}-ASEVSTAVVGRLSAELHEVATLPRTETGSGSP-NH2)

half-life ([6]; male, Sprague Dawley, plasma, sc, 20 nmol/kg): 1 h
Structure (SMILES): CC(C)C[C@H](NC(=O)[C@H](CCCCN)NC(=O)CNC(=O)[C@H](CC(C)C)NC(=O)[C@@H](NC(=O)[C@@H]1CSSC[C@H](N)C(=O)N[C@@H](CO)C(=O)N[C@@H](CC(N)=O)C(=O)N[C@@H](CC(C)C)C(=O)N[C@@H](CO)C(=O)N[C@@H]([C@@H](C)O)C(=O)N1)C(C)C)C(=O)N[C@@H](CO)C(=O)N[C@@H](CCC(N)=O)C(=O)N[C@@H](CCC(=O)O)C(=O)N[C@@H](CC(C)C)C(=O)N[C@@H](Cc1c[nH]cn1)C(=O)N[C@@H](CCCCN)C(=O)N[C@@H](CC(C)C)C(=O)N[C@@H](CCC(N)=O)C(=O)N[C@H](C(=O)N[C@@H](Cc1ccc(O)cc1)C(=O)N1CCC[C@H]1C(=O)N[C@@H](CCCNC(=N)N)C(=O)N[C@H](C(=O)N[C@@H](CC(N)=O)C(=O)N[C@H](C(=O)NCC(=O)N[C@@H](CO)C(=O)NCC(=O)N[C@H](C(=O)N1CCC[C@H]1C(N)=O)[C@@H](C)O)[C@@H](C)O)[C@@H](C)O)[C@@H](C)O [Salmon calcitonin, reference compound]

Solubility ([2]; pH 3.0): ≧200 μM
Solubility ([2]; pH 4.0): ≧200 μM
Solubility ([2]; pH 5.0): ≧200 μM
Solubility ([2]; pH 6.0): ≧200 μM
Solubility ([2]; pH 6.5): ≧200 μM
Solubility ([2]; pH 7.0): ≧200 μM
Solubility ([2]; pH 7.5): ≧200 μM
Solubility ([2]; pH 8.0): ≧200 μM
PK rat iv T½ ([6]; i.v.): 6 h
PK rat sc T½ ([6]; s.c.): 13 h
Structure (SMILES): CC(C)C[C@H](NC(=O)[C@H](C)NC(=O)[C@H](C)NC(=O)[C@@H](NC(=O)[C@H](CO)NC(=O)[C@H](CC(C)C)NC(=O)[C@H](CCC(=O)O)NC(=O)[C@H](CO)NC(=O)[C@H](C)NC(=O)[C@H](CCC(=O)O)NC(=O)COCCOCCNC(=O)COCCOCCNC(=O)COCCOCCNC(=O)COCCOCCNC(=O)CC[C@H](NC(=O)CC[C@H](NC(=O)CCCCCCCCCCCCC(=O)O)C(=O)O)C(=O)O)[C@@H](C)O)C(=O)NCC(=O)N[C@@H](CCCNC(=N)N)C(=O)N[C@@H](CC(C)C)C(=O)N[C@@H](CO)C(=O)N[C@@H](C)C(=O)N[C@@H](CCC(=O)O)C(=O)N[C@@H](CC(C)C)C(=O)N[C@@H](Cc1cnc[nH]1)C(=O)N[C@@H](CCC(=O)O)C(=O)N[C@@H](CC(C)C)C(=O)N[C@@H](C)C(=O)N[C@H](C(=O)N[C@@H](CC(C)C)C(=O)N1CCC[C@H]1C(=O)N[C@@H](CCCNC(=N)N)C(=O)N[C@H](C(=O)N[C@@H](CCC(=O)O)C(=O)N[C@H](C(=O)NCC(=O)N1CCC[C@H]1C(=O)N[C@@H](CCC(=O)O)C(=O)N[C@@H](CO)C(=O)N1CCC[C@H]1C(N)=O)[C@@H](C)O)[C@@H](C)O)[C@@H](C)O [compound 5, [N-terminal(C14 diacid-2xgGlu-4xOEG)]mimylin] ({C14 diacid-γGlu-γGlu-AEEA-AEEA-AEEA-AEEA}-EASELSTAALGRLSAELHELATLPRTETGPESP-NH2)
